The values that follow come from patent US20250352629A1, “ADJUVANT FOR BACILLUS CALMETTE-GUERIN CANCER IMMUNOTHERAPY” (The Royal Institution for the Advancement of …, priority 2024, published 2025).

Values joined by “and” are separate entries in the source; they are usually repeats but may differ in a detail not shown here. Equal entries are not always repeated. “Also recorded” adds a separate entry of the source.

Data set [1] deals with MB49 cells. Particulars: mouse, in vivo.
Data set [2] deals with MB49 cells. Particulars: mouse, in vivo. This is another data set of the same source.
Data set [3] deals with HSCs (LKS+ cells) and immune cells in BM and bladder. The following applies: mouse, in vivo.
In data set [4] the test system is MB49 cells.
Data set [5] has as its system B16-F10 cells. Particulars: mouse, in vivo.
For data set [6] the following is noted: mouse, in vivo.
In data set [7] the test system is bladder cancer. Particulars: human, in vivo; cited from earlier work.

As for β-Glucan, in data set [1], the increase in survival is 50% and 40%; the survival came out at 40%; the “survival after neutrophil depletion” value turned out to be 10%; the “tumor growth / tumoral volume (histopathology, MRI, tumoral weight)” value is given as “suppressing tumoral growth; also recorded: reduced tumor growth; also recorded: significant reduction in tumor volume”. Besides, the “enhanced survival compared to PBS-control group” value in data set [1] (ip) amounted to 45%. Further, in data set [2], the tumor growth entry is “developed tumors”. In data set [3], the “frequency and absolute number of neutrophils in bladder” value is recorded as “significantly increased”; the “frequency of lymphocytes / adaptive immune cells (CD4+ and CD8+ T cells) in bladder” value is “remained unchanged”. For the same compound, the “frequency and total cell number of neutrophils in BM” value in data set [3] (ip) is given as “increased”.

Consider `CC(=O)N[C@@H](CS)C(=O)O` [NAC, N-Acetyl Cysteine], for which the “effect of ROS scavenger on cytotoxic activity of trained neutrophils” value in data set [4] was “abolished the cytotoxic activity”.

Consider Bacillus Calmette-Guérin [BCG], for which, in data set [1], the increase in survival worked out at 50%; the survival was 50-70% and 50%; the “tumor growth / tumoral volume (histopathology, MRI, tumoral weight)” value is “substantial reduction in tumoral volume; also recorded: reduced tumor growth; also recorded: significant tumor reduction”. The enhanced survival in data set [1] (iv) is reported as 40-50%. Also, the tumor growth entry in data set [2] is listed as “significantly reduced tumor growth”. In addition, the “BM-LKS+ population” value in data set [5] is recorded as “significant expansion”. In addition, in data set [6], the “BCG dissemination to organs” value was “reached the spleen, draining lymph nodes, and BM”; the “BCG elimination in urine” value was “eliminated in the urine”. Besides, in data set [7], the “efficacy of BCG treatment in bladder cancer” value is 30-50%, the “intolerance due to adverse effects” value is reported as “about 20%”, the patients experiencing relapse entry is “up to 40%” and the “patients unresponsive to BCG immunotherapy” value was “up to 50%”. In data set [3], the “LKS+ population in BM, frequency and absolute number” value was “significant expansion”; the “frequency and absolute number of monocytes in BM” value is recorded as “increased”; the “frequency and absolute number of neutrophils in BM” value was “increased”; the “frequency and absolute number of neutrophils in bladder” value was “increased”. For the same compound, in data set [3], the “frequency and absolute numbers of dendritic cells in BM” value was “increased”; the “frequency and absolute numbers of dendritic cells in bladder” value is on record as “increased”; the “frequency and absolute numbers of monocytes in bladder” value was “increased”; the “frequency and total cell numbers of NK cells in bladder” value is “increased”. Moreover, in data set [3], the “frequency and total cell numbers of macrophages in bladder” value is recorded as “increased”; the “frequency of lymphocytes / adaptive immune cells (CD4+ and CD8+ T cells) in bladder” value is reported as “increased”; the “proportions of long-term HSCs (LT-HSCs) in BM” value is listed as “reduction”; the “proportions of multipotent progenitors (MPPs) in BM” value was “increases”. Also, in data set [3], the “proportions of short-term HSCs (ST-HSCs) in BM” value is given as “increases”.
